In patent US7445791B2, “Synergistic insecticidal composition containing Chloronicotynyle and Organosphosphorus compounds” (priority 2004, dated 2008):
Converted amounts (≈) assume the structure as drawn. Read-outs that look alike come from different tables or passages of the source.

Experiments:
crop plants = conditions: cited from earlier work
[1] = 20° C.; cited from earlier work
[2] = cited from earlier work; for DT50 hydrolysis: 40° C.; for DT 50 (calculated) hydrolysis: 20° C.
[3] = system: Brown plant hoppers and Green plant hoppers; format: in vivo; conditions: 5 days after treatment
Protocol: In this evaluation, Brown plant hoppers and Green plant hoppers are obtained from laboratory colonies. Paddy leaves are immersed in 1:1 v/v, acetone/water solutions of the test compound, or solution of a combination of the test compounds, for a period of about 4 seconds. Following immersion, leaves are allowed to air-dry for 2-3 hours. Plastic bioassay trays containing multiple open-faced wells (4.0×4.0×2.5 cm) are used. Cut portions of a treated leaf, a moistened cotton dental wick and a single third-instar larva are placed into each well. These wells are covered with an adhesive vented clear plastic sheet which is held under constant fluorescent light at about 30° C. for a predetermined period of time. Larval mortality/morbidity is evaluated at 5 days after treatment. All treatments are replicated 3-4 fold in a randomized complete block design with 15-30 larvae per treatment. Using conventional log-probit analysis, the LC50 of each treatment is determined.
Using the above process, a Chloronicotynyle compound may be evaluated alone and in combination with a second insecticidal compound, Imidacloprid, at dose rates of 0, 15, 18, 21, 24, 27 and 30 ppm and in combination with Acephate 0, 400, 500, 600, 700, 800 ppm in various combination of these strengths.
Synergism can be calculated by using the Colby's method i.e. the expected (or predicted) response of the combination is calculated by taking the product of the observed response for each individual component of the combination when applied alone divided by 100 and subtracting this value from the sum of observed response for each component when applied alone. Synergism of the combination is then determined by comparing the observed response of the combination to the expected (or predicted) response as calculated from the observed response of each individual component alone. If the observed response of the combination is greater than the expected (or predicted) response then the combination is said to be synergistic and falls within the definition of synergistic effect. (Colby, S. R., Weeds, 1967(15), p. 20-22).

[4] = cited from earlier work
mice = conditions: cited from earlier work
[5] = system: nematodes and spider mites; conditions: cited from earlier work
[6] = mammals, oral administration, almost entirely in the urine; cited from earlier work

COP(=O)(NC(C)=O)SC (stereo not shown) [Acephate, O,S-dimethylacetylphosphoramidothioate]
phytotoxicity to crop plants (in words) (crop plants): non-phytotoxic to most crop plants | solubility in water [1]: about 790 g/l | DT50 hydrolysis ([2]; pH 3): 710 h | DT50 hydrolysis ([2]; pH 9): 60 h | Observed Mortality % ([3]; Acephate 600 ppm alone): 52.50% | Observed Mortality % ([3]; Acephate 700 ppm alone): 60.00% | Observed Mortality % ([3]; Acephate 800 ppm alone): 70.00% | solubility in acetone ([4]; 20° C.): 151 mg/mL (≈ 824 mM) | solubility in benzene ([4]; 20° C.): 16 mg/mL (≈ 87.4 mM) | solubility in ethanol ([4]; 20° C.): > 100 mg/mL | solubility in ethyl acetate ([4]; 20° C.): 35 mg/mL (≈ 191 mM) | solubility in hexane ([4]; 20° C.): 0.1 mg/mL (≈ 0.546 mM)

O=[N+]([O-])NC1=NCCN1Cc1ccc(Cl)nc1 [Imidacloprid, 1-(6-chloro-3-pyridylmethyl)-N-nitroimidazolidin-2-yldeneamine]
acute oral LD50 (mice): 150 mg/kg | Observed Mortality % ([3]; Imidacloprid 20 ppm alone): 47.30% | solubility in dichloromethane ([4]; 20° C.): 55 mg/mL (≈ 215 mM) | solubility in hexane ([4]; 20° C.): < 0.1 mg/mL | solubility in isopropanol ([4]; 20° C.): 1.2 mg/mL (≈ 4.69 mM) | solubility in toluene ([4]; 20° C.): 0.68 mg/mL (≈ 2.66 mM) | effect on nematodes and spider mites [5]: no effect

CCN(CC)C(=O)C(Cl)=C(C)OP(=O)(OC)OC [Phosphamidon, 2-chloro-2-diethylcarbamoyl-1-methylvinyldimethylphosphate]
DT 50 (calculated) hydrolysis ([2]; pH 5): 60 days | DT 50 (calculated) hydrolysis ([2]; pH 7): 54 days | DT 50 (calculated) hydrolysis ([2]; pH 9): 12 days | hydrolysis in alkali (in words) ([2]; alkali): rapidly hydrolysed | Observed Mortality % ([3]; Phosphamidon 320 ppm alone): 60.0% | Observed Mortality % ([3]; Phosphamidon 370 ppm alone): 65% | Observed Mortality % ([3]; Phosphamidon 400 ppm alone): 72.0% | dose excreted within 24 hours [6]: 85-90%

(E)-N′-[(6-chloro-3-pyridyl)methyl]-N-cyano-N-methylacetamidine [Acetamiprid]
solubility in organic solvents (in words) ([4]; acetone, methanol, ethanol, dichloromethane, chloroform, acetonitrile and tetrahydrofuron): Soluble
